One assay has as its target T1, MAT2A homodimer (Homo sapiens, UniProt P31153).
T1 construct: inferred from Ni sepharose purification with imidazole elution; made in house; host or cells: Sf9 insect cells, baculovirus (Bac to Bac, pFASTBAC1)
As to the kind of experiment: MAT2A inhibition (biochemical, liberated phosphate, PiColorLock Gold). The note with it: recombinant MAT2A homodimer; IC50 bin with Max Inh.; read-out: Enzyme Inhibition Bin. In outline:
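Enzyme at 4 μg/mL and compound equilibrated 60 min at 25 °C, then 60 min reaction after adding substrate mix (500 μM ATP, 400 μM methionine). Released phosphate quantified by colorimetric kit against a phosphate standard curve to give IC50. Secondary format used 1 μg/mL enzyme with 5 h incubation.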

For the next assay, the system named is HCT116 MTAP−/−. As to the kind of experiment: Inhibition of cellular proliferation, 4 days, Cell Titer Glo, HCT116 MTAP−/−. It is filed as cell-based. The note with it: Homo sapiens, HCT-116, 96 h, IC50 bin with Max Inh., read-out: 4 Day Relative Growth Inhibition (MTAP −/−). In short, it runs like this: (§1)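 IC50 derived from blank-corrected ATP luminescence (Cell Titer Glo) expressed relative to within-plate 0.2% DMSO wells. Compound, as a 10-point 3-fold series, was added 24 h after seeding the MTAP+/+ or MTAP−/− HCT116 cells and incubated 4 days at 37° C./5% CO2.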
(In general: ATP-based viability assays read luminescence as a measure of living cells.)

Assay [1] concerns SAM in HCT116 human colon carcinoma cell line with MTAP gene deleted (MTAP −/−). As to the kind of experiment: Cellular assay of target engagement (SAM), LC-MS/MS, 72 hrs. It is filed as cell-based. The note with it: HCT-116, IC50 bin with Max Inh., read-out: Cell 72 h SAM Inhibition (MTAP −/−). In outline: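 SAM levels were quantified by LC-MS/MS (m/z 399.2→250.1, d3-SAM internal standard) from cold methanol/acetic acid extracts, yielding IC50. Compound was applied as a 10-point 3-fold series for 72 hrs to MTAP −/− HCT116 cells seeded 24 hours before.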

The next assay deals with HCT116 MTAP+/+. As to the kind of experiment: Inhibition of cellular proliferation, 4 days, Cell Titer Glo, HCT116 MTAP+/+. The note with it: Homo sapiens, HCT-116, 96 h, IC50 bin with Max Inh., read-out: 4 Day Relative Growth Inhibition (MTAP +/+). It is filed as cell-based. In short, it runs like this:
as §1

Structures are written as SMILES. pIC50: −log10 of the molar value.

T1 sequence (P31153 whole entry): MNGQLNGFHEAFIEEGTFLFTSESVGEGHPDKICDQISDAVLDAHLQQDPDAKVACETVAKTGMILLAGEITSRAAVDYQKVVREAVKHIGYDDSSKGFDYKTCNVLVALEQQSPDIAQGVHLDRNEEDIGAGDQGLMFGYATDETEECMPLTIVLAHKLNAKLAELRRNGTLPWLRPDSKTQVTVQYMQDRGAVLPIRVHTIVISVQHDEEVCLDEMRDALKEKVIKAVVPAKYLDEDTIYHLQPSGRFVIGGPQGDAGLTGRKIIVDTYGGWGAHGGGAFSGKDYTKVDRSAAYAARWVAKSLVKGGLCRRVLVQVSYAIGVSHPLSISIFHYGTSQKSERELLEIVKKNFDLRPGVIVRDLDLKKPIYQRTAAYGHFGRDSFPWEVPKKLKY

In the case of `Cc1ccc(-c2c(=O)n(-c3ccc4nn(C)cc4c3)nc3c(C(N)=O)cn(CC4CC4)c23)cn1` [Example 175, 5-(cyclopropylmethyl)-2-(2-methyl-2H-indazol-5-yl)-4-(6-methylpyridin-3-yl)-3-oxo-3,5-dihydro-2H-pyrrolo[3,2-c]pyridazine-7-carboxamide], the pIC50 at MAT2A homodimer is > 7.00; in the assay with HCT116 MTAP−/− it was 6.00 to 7.00; in assay [1], 6.00 to 7.00; in the assay with HCT116 MTAP+/+ it was < 6.00.
With `Cn1nc2ccc(-n3nc4ccn(CC5CC5)c4c(-c4ccc(C5CC5)nc4)c3=O)cc2c1C(F)(F)F` [Example 241, 5-(cyclopropylmethyl)-4-(6-cyclopropylpyridin-3-yl)-2-(2-methyl-3-(trifluoromethyl)-2H-indazol-5-yl)-2,5-dihydro-3H-pyrrolo[3,2-c]pyridazin-3-one], the pIC50 at MAT2A homodimer is > 7.00; with HCT116 MTAP−/−, > 7.00; in assay [1], > 7.00; in the assay with HCT116 MTAP+/+ it was < 6.00.
As to `CC(C)c1cn(CC2CC2)c2c(-c3ccc(C4CC4)nc3)c(=O)n(-c3ccc4nn(C)cc4c3)nc12` [Example 248, 5-(cyclopropylmethyl)-4-(6-cyclopropylpyridin-3-yl)-7-isopropyl-2-(2-methyl-2H-indazol-5-yl)-2,5-dihydro-3H-pyrrolo[3,2-c]pyridazin-3-one], the pIC50 on MAT2A homodimer was > 7.00; in the assay with HCT116 MTAP−/−, > 7.00; in assay [1], > 7.00; with HCT116 MTAP+/+, < 6.00.
As to `Cn1cc2cc(-n3nc4c(C#N)cn(C[C@@H]5CC5(F)F)c4c(-c4ccc(C5CC5)nc4)c3=O)ccc2n1` [Example 268, (S)-4-(6-cyclopropylpyridin-3-yl)-5-((2,2-difluorocyclopropyl)methyl)-2-(2-methyl-2H-indazol-5-yl)-3-oxo-3,5-dihydro-2H-pyrrolo[3,2-c]pyridazine-7-carbonitrile], the pIC50 on MAT2A homodimer was > 7.00; in the assay with HCT116 MTAP−/− it was > 7.00; in assay [1] it was > 7.00; in the assay with HCT116 MTAP+/+, < 6.00.
As for `Cc1ccc(-c2c(=O)n(-c3ccc4nn(C)cc4c3)nc3ccn(CC4CC4)c23)cn1` [Example 103, 5-(cyclopropylmethyl)-2-(2-methyl-2H-indazol-5-yl)-4-(6-methylpyridin-3-yl)-2,5-dihydro-3H-pyrrolo[3,2-c]pyridazin-3-one], the pIC50 is > 7.00 on MAT2A homodimer, > 7.00 in the assay on HCT116 MTAP−/−, > 7.00 in assay [1] and 6.00 to 7.00 in the assay with HCT116 MTAP+/+.
Consider `Cn1cc2cc(-n3nc4c(C#N)cn(CC5CC5)c4c(-c4ccc(C5CC5)cc4)c3=O)ccc2n1` [Example 138, 5-(cyclopropylmethyl)-4-(4-cyclopropylphenyl)-2-(2-methyl-2H-indazol-5-yl)-3-oxo-3,5-dihydro-2H-pyrrolo[3,2-c]pyridazine-7-carbonitrile], for which the pIC50 on MAT2A homodimer is > 7.00; with HCT116 MTAP−/−, > 7.00; in assay [1], > 7.00; in the assay on HCT116 MTAP+/+, < 6.00.
Turning to `Cn1cc2cc(-n3nc4c(Cl)cn(CC5CC5)c4c(-c4ccc(C5CC5)nc4)c3=O)ccc2n1` [Example 233, 7-chloro-5-(cyclopropylmethyl)-4-(6-cyclopropylpyridin-3-yl)-2-(2-methyl-2H-indazol-5-yl)-2,5-dihydro-3H-pyrrolo[3,2-c]pyridazin-3-one], the pIC50 on MAT2A homodimer was > 7.00; with HCT116 MTAP−/− it was > 7.00; in assay [1] it was > 7.00; in the assay with HCT116 MTAP+/+, 6.00 to 7.00.
Consider `O=c1c(-c2ccc(OC(F)F)cc2)c2c(ccn2CC2CC2)nn1-c1ccncc1` [Example 226, 5-(cyclopropylmethyl)-4-(4-(difluoromethoxy)phenyl)-2-(pyridin-4-yl)-2,5-dihydro-3H-pyrrolo[3,2-c]pyridazin-3-one], for which the pIC50 is > 7.00 on MAT2A homodimer, > 7.00 in the assay with HCT116 MTAP−/−, > 7.00 in assay [1] and 6.00 to 7.00 in the assay on HCT116 MTAP+/+.
Regarding `Cn1cc2cc(-n3nc4c(C#N)cn(CC5CC5)c4c(-c4ccc(OC(F)F)nc4)c3=O)ccc2n1` [Example 114, 5-(cyclopropylmethyl)-4-(6-(difluoromethoxy)pyridin-3-yl)-2-(2-methyl-2H-indazol-5-yl)-3-oxo-3,5-dihydro-2H-pyrrolo[3,2-c]pyridazine-7-carbonitrile], the pIC50 on MAT2A homodimer is > 7.00; in the assay with HCT116 MTAP−/− it was > 7.00; in assay [1], > 7.00; in the assay on HCT116 MTAP+/+, < 6.00.
For the molecule `C[C@H](O)c1cn(CC2CC2)c2c(-c3ccc(C4CC4)nc3)c(=O)n(-c3ccc4nn(C)cc4c3)nc12` [Example 250, (S)-5-(cyclopropylmethyl)-4-(6-cyclopropylpyridin-3-yl)-7-(1-hydroxyethyl)-2-(2-methyl-2H-indazol-5-yl)-2,5-dihydro-3H-pyrrolo[3,2-c]pyridazin-3-one], the pIC50 at MAT2A homodimer is > 7.00; with HCT116 MTAP−/−, > 7.00; in assay [1] it was > 7.00; in the assay with HCT116 MTAP+/+ it was < 6.00.
As for `CCc1ccc(-c2c(=O)n(-c3ccc4nc(C)n(C)c4c3)nc3ccn(CC4CC4)c23)cn1` [Example 142, 5-(cyclopropylmethyl)-2-(1,2-dimethyl-1H-benzo[d]imidazol-6-yl)-4-(6-ethylpyridin-3-yl)-2,5-dihydro-3H-pyrrolo[3,2-c]pyridazin-3-one], the pIC50 was > 7.00 at MAT2A homodimer, > 7.00 with HCT116 MTAP−/−, > 7.00 in assay [1] and < 6.00 in the assay on HCT116 MTAP+/+.
`CNCc1cn(CC2CC2)c2c(-c3ccc(C4CC4)nc3)c(=O)n(-c3ccc4nn(C)cc4c3)nc12` [Example 267, 5-(cyclopropylmethyl)-4-(6-cyclopropylpyridin-3-yl)-2-(2-methyl-2H-indazol-5-yl)-7-((methylamino)methyl)-2,5-dihydro-3H-pyrrolo[3,2-c]pyridazin-3-one]: the pIC50 is > 7.00 on MAT2A homodimer, 6.00 to 7.00 in the assay on HCT116 MTAP−/−, 6.00 to 7.00 in assay [1] and < 6.00 with HCT116 MTAP+/+.
For the molecule `Cn1cc2cc(-n3nc4c(Br)cn(CC5CC5)c4c(-c4ccc(C5CC5)nc4)c3=O)ccc2n1` [Example 238, 7-bromo-5-(cyclopropylmethyl)-4-(6-cyclopropylpyridin-3-yl)-2-(2-methyl-2H-indazol-5-yl)-2,5-dihydro-3H-pyrrolo[3,2-c]pyridazin-3-one], the pIC50 is > 7.00 at MAT2A homodimer, > 7.00 in the assay with HCT116 MTAP−/−, > 7.00 in assay [1] and < 6.00 in the assay with HCT116 MTAP+/+.
`COc1ccc(-c2c(=O)n(-c3ccc4nn(C)cc4c3)nc3c(C)nn(CC4CC4)c23)cc1` [Example 214, 1-(cyclopropylmethyl)-7-(4-methoxyphenyl)-3-methyl-5-(2-methyl-2H-indazol-5-yl)-1,5-dihydro-6H-pyrazolo[4,3-c]pyridazin-6-one]: the pIC50 at MAT2A homodimer is > 7.00; in the assay with HCT116 MTAP−/− it was > 7.00; in assay [1] it was > 7.00; in the assay on HCT116 MTAP+/+, 6.00 to 7.00.
As to `Cn1cc2cc(-n3nc4c(C#N)c(Cl)n(CC5CC5)c4c(-c4ccc(C5CC5)nc4)c3=O)ccc2n1` [Example 251, 6-chloro-5-(cyclopropylmethyl)-4-(6-cyclopropylpyridin-3-yl)-2-(2-methyl-2H-indazol-5-yl)-3-oxo-3,5-dihydro-2H-pyrrolo[3,2-c]pyridazine-7-carbonitrile], the pIC50 at MAT2A homodimer is > 7.00; with HCT116 MTAP−/−, > 7.00; in assay [1], > 7.00; in the assay with HCT116 MTAP+/+, 6.00 to 7.00.
Consider `Cn1cc2cc(-n3nc4nnn(CC5CC5)c4c(-c4ccc(C5CC5)cc4)c3=O)ccc2n1` [Example 209, 1-(cyclopropylmethyl)-7-(4-cyclopropylphenyl)-5-(2-methyl-2H-indazol-5-yl)-1,5-dihydro-6H-[1,2,3]triazolo[4,5-c]pyridazin-6-one], for which the pIC50 is > 7.00 at MAT2A homodimer, 6.00 to 7.00 in the assay with HCT116 MTAP−/−, 6.00 to 7.00 in assay [1] and < 6.00 with HCT116 MTAP+/+.
Turning to `Cn1cc2cc(-n3nc4ccn(CC5CC5)c4c(-c4ccc(OC(F)F)cc4)c3=O)ccc2n1` [Example 101, 5-(cyclopropylmethyl)-4-(4-(difluoromethoxy)phenyl)-2-(2-methyl-2H-indazol-5-yl)-2,5-dihydro-3H-pyrrolo[3,2-c]pyridazin-3-one], the pIC50 is > 7.00 at MAT2A homodimer, > 7.00 in the assay with HCT116 MTAP−/−, > 7.00 in assay [1] and < 6.00 in the assay on HCT116 MTAP+/+.
As for `COc1ccc(-c2c(=O)n(-c3ccc4nc(C)n(C)c4c3)nc3ncn(CC4CC4)c23)cc1` [Example 195, 5-(cyclopropylmethyl)-2-(1,2-dimethyl-1H-benzo[d]imidazol-6-yl)-4-(4-methoxyphenyl)-2,5-dihydro-3H-imidazo[4,5-c]pyridazin-3-one], the pIC50 was > 7.00 at MAT2A homodimer, > 7.00 with HCT116 MTAP−/−, > 7.00 in assay [1] and < 6.00 in the assay with HCT116 MTAP+/+.

The record behind these values is patent US20220169654A1, “New Organic Compounds” (Servier Pharmaceuticals LLC, priority 2020, published 2022).
